Data set [1] concerns the target T1, Prostaglandin G/H synthase 1 (Mus musculus, UniProt P22437).
T1 sequence (P22437 whole entry): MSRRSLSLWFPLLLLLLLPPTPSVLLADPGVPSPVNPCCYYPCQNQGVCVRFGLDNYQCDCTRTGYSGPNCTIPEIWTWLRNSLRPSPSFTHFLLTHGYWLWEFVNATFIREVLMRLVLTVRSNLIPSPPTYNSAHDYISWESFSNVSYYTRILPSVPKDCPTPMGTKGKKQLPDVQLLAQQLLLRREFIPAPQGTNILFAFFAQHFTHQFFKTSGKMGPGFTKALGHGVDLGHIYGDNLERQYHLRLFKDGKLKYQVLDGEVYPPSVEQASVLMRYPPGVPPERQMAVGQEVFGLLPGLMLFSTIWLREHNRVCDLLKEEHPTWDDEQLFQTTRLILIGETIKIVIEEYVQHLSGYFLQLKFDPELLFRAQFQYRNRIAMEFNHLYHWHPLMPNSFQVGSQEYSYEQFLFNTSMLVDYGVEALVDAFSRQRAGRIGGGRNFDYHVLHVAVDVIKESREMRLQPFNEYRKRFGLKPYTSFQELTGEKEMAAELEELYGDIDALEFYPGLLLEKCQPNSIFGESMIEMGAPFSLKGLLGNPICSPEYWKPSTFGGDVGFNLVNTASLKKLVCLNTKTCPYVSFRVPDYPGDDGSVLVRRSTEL
The data set is described as follows: Inhibitory concentration against prostaglandin G/H synthase 1 in mouse peritoneal macrophages.

A short description of data set [2]: Tmax value at a dose of 100 mg/kg in male SD rats. The data set is classed as ADME, organism-based. Also noted: dose 100 mg/kg. Conditions: rat, in vivo.
For data set [3], the system named is Rattus norvegicus. As to the kind of experiment: Effective dose against adjuvant-induced arthritis (AA) in SD rats upon peroral administration (QD). The data set is classed as functional. The following applies: po.
Data set [4] is described as follows: Cmax value at a dose of 10 mg/kg in male SD rats. The class given is ADME, organism-based. Details: dose 10 mg/kg. Conditions: rat, in vivo.
Data set [5] can be described thus: Tmax value at a dose of 50 mg/kg in male SD rats. The data set is classed as ADME, organism-based. Details: dose 50 mg/kg. Conditions: rat, in vivo.
A short description of data set [6]: Area under curve (0-24 hr) at a dose of 100 mg/kg in male SD rats. The class given is ADME, organism-based. Details: time < 24 hr, dose 100 mg/kg. Conditions: rat, in vivo.
Data set [7] is described as follows: Area under curve (0-24 hr) at a dose of 10 mg/kg in male SD rats. The class given is ADME, organism-based. Also noted: time < 24 hr, dose 10 mg/kg. Conditions: rat, in vivo.
Data set [8] in a line: Cmax value at a dose of 50 mg/kg in male SD rats. Also noted: dose 50 mg/kg. The data set is classed as ADME, organism-based. The following applies: rat, in vivo.
The target of data set [9] is T2, Prostaglandin G/H synthase 2 (Mus musculus, UniProt Q05769).
T2 sequence (Q05769 whole entry): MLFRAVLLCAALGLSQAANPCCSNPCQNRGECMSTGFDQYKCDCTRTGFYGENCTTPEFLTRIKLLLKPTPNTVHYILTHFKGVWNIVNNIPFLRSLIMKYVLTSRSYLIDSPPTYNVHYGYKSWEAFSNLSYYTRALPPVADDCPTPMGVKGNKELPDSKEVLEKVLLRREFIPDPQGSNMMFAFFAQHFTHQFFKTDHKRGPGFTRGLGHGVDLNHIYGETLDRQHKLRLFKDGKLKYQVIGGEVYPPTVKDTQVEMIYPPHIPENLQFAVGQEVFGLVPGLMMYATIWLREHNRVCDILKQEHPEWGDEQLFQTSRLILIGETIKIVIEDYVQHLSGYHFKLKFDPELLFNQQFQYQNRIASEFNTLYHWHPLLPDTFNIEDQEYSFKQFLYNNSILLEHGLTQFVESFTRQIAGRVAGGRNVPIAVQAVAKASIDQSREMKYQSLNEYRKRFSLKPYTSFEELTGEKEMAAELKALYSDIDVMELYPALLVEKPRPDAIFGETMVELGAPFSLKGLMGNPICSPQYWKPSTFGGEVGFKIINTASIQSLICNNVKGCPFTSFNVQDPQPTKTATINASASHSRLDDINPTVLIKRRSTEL
The data set is described as follows: Inhibitory concentration against prostaglandin G/H synthase 2 in mouse peritoneal macrophages.

Data set [10] can be described thus: Area under curve (0-24 hr) at a dose of 50 mg/kg in male SD rats. The data set is classed as ADME, organism-based. Also noted: time < 24 hr, dose 50 mg/kg. Conditions: rat, in vivo.
The nature of data set [11]: Tmax value at a dose of 10 mg/kg in male SD rats. The class given is ADME, organism-based. Conditions: rat, in vivo. Also noted: dose 10 mg/kg.
A short description of data set [12]: Cmax value at a dose of 100 mg/kg in male SD rats. The data set is classed as ADME, organism-based. Conditions: rat, in vivo. Details: dose 100 mg/kg.
Data set [13] is described as follows: Cmax upon oral administration in male Beagle dog at 10 mg/kg. The data set is classed as ADME, organism-based, Canis lupus familiaris. Also noted: dose 10 mg/kg, route oral. Conditions: in vivo.
Data set [14] concerns Rattus norvegicus. As to the kind of experiment: Inhibition of adjuvant-induced arthritis (AA) in SD rats upon peroral administration (BID) at 0.1 mg/kg/day. The class given is functional. Conditions: route oral.
The subject of data set [15] is Rattus norvegicus. The data set is described as follows: Effective dose against adjuvant-induced arthritis (AA) in male lewis rats upon peroral administration (bid). The data set is classed as functional. The following applies: po.
Data set [16] concerns Rattus norvegicus. As to the kind of experiment: Inhibition of adjuvant-induced arthritis (AA) in SD rats upon peroral administration (BID) at 0.3 mg/kg/day. The class given is functional. The following applies: route oral.

The pIC50 is the negative decadic logarithm of the IC50, by convention in mol/L. Low readings indicate a large IC50, high ones a small IC50. One may read the Tmax as the time from dosing to the highest level. For orientation: ED50 means the dose that gives a 50% effect, or the effect in half of the subjects. As usually defined, the Cmax is the maximum level reached in the sampled fluid or tissue. In general, AUC(0-t) refers to the area under the concentration-time curve up to a stated or last time point. The inhibition in vivo is the relative decrease from the control value, in per cent.

pIC50: −log10 of the molar value.

For the compound `CC1(C)OC(c2ccc(S(C)(=O)=O)cc2)=C(c2cc(F)cc(F)c2)C1=O`, the negative logarithm of the IC50 (pIC50) in data set [1] is 4.88; in [9], 7.28. Besides, the Tmax in data set [2] amounted to 5 h; in [5], 4.3 h; in data set [11], 2 h. Moreover, the median effective dose (ED50) with Rattus norvegicus [3] was found to be 0.03 mg/kg/day. Further, the Cmax worked out at 2580 ng/mL in data set [4], 11700 ng/mL in data set [8], 24900 ng/mL in data set [12] and 130 ng/mL in data set [13]. Moreover, the AUC(0-t) at 24 h was determined as 487000 ng·h/mL in data set [6], 23100 ng·h/mL in [7] and 359000 ng·h/mL in data set [10].
In data set [4], `CC1(C)OC(c2ccc(S(C)(=O)=O)cc2)=C(c2cccc(Cl)c2)C1=O` showed a Cmax of 1390 ng/mL. Further, the AUC(0-t) at 24 h in data set [7] was found to be 12700 ng·h/mL. For the same compound, the Tmax in [11] amounted to 1.5 h.
`C[S+]([O-])c1ccc(C2=C(c3cc(F)cc(F)c3)C(=O)C(C)(C)O2)cc1` (stereo not drawn): in the data set on Rattus norvegicus [14], the inhibition in vivo at 0.1 mg/kg/day turned out to be 40%. Moreover, the median effective dose (ED50) with Rattus norvegicus [15] was around 0.2 mg/kg/day. In addition, the inhibition in vivo at 0.3 mg/kg/day in the data set with Rattus norvegicus [16] was 76%.
`COc1ccc2c(c1)c(CC(=O)O)c(C)n2C(=O)c1ccc(Cl)cc1` [INDOMETHACIN]: the inhibition in vivo at 0.3 mg/kg/day with Rattus norvegicus [16] came to 60%.
In data set [4], `C[S+]([O-])c1ccc(C2=C(c3cccc(Cl)c3)C(=O)C(C)(C)O2)cc1` (stereo not drawn) gave a Cmax of 460 ng/mL. Besides, the AUC(0-t) at 24 h in data set [7] stood at 3610 ng·h/mL. In addition, in data set [11], the Tmax came out at 0.5 h.

(Values after ChEMBL document CHEMBL1147500, “A prodrug approach to COX-2 inhibitors with methylsulfone” (Bioorg Med Chem Lett, 2004).)
